One data set is described as follows: Solubility in buffer. The note with it: 80 mM ammonium bicarbonate buffer, pH 7.7, Solubility [mg/mL] 80 mM AmBicarb pH7.7, Table 2; 80 mM AmBicarb pH7.7.
The target of another data set is GLP-1R (Homo sapiens, UniProt P43220). The data set is described as follows: GLP-1 receptor-mediated cAMP induction, luciferase reporter gene antagonism assay. The class given is cell-based. Set-up: host or cells: HEK 293. The following applies: Table 2; C16 linker variants of 9-40amide Jant4 K40[X]; antagonism of 0.05 nM GLP-1, HEK 293 cells; read-out: Biactivity IC50. Here is the method: GLP-1 Receptor-Mediated cAMP Induction The ability of peptides to stimulate or block cAMP induction at the GLP-1 receptor was examined by a luciferase-based reporter gene assay. Cotransfection of HEK 293 cells with the human GLP-1 receptor (Open Biosystems) and a cAMPinducible (cAMPresponsive element) luciferase gene constituted the cellular construct where receptor activation could be measured. Bioassays were performed by first serum depriving the cells for 16 h in 0.25% bovine growth serum (HyClone)-supplemented Dulbecco's modified Eagle's medium (Invitrogen) and then adding serial dilutions of the peptides over the appropriate concentration ranges in 96-well poly-D-lysine-coated plates (BD Biosciences). For antagonism assays, a constant concentration of GLP-1 (0.05 nM) was added to the assay plate after the diluted peptides. Incubation continued for 5 h at 37° C., 5% CO2 and was followed by the addition of an equivalent volume (100 μL) of LucLite luminescence substrate reagent (Perkin-Elmer). MicroBeta 1450 liquid scintillation counting (Perkin-Elmer) quantified the luminescence signal in counts per second (cps) after shaking the plate at 600 rpm for 3 min. Data was plotted using Origin software (OriginLab) and the effective concentration 50 (EC50) or inhibitory concentration 50 (IC50) was determined by sigmoidal fitting. Potency was determined by comparative analysis of relative EC50 or IC50 values. Each experiment was repeated at least three times with each sample assayed in duplicate.
(Reporter assays use an easily measured gene product as a stand-in for the process of interest.)

Starred links: 1 amine or outer side, 2 acyl side, 3 side chain; linkers in the order of their positions; H or OH if unused. Residues, ends and D or L forms follow the SMILES beside them. Groups on a side chain read outwards from the residue. *: point of attachment. C18 diacid = O=C(O)CCCCCCCCCCCCCCCCC(=O)*; γGlu = O=C(O)[C@H](CCC(=O)[*:2])N[*:1]; Palmitoyl = CCCCCCCCCCCCCCCC(=O)*; AEEA = NCCOCCOCC(=O)O Some results are limits rather than exact numbers.

Sequence of GLP-1R (P43220 24-463): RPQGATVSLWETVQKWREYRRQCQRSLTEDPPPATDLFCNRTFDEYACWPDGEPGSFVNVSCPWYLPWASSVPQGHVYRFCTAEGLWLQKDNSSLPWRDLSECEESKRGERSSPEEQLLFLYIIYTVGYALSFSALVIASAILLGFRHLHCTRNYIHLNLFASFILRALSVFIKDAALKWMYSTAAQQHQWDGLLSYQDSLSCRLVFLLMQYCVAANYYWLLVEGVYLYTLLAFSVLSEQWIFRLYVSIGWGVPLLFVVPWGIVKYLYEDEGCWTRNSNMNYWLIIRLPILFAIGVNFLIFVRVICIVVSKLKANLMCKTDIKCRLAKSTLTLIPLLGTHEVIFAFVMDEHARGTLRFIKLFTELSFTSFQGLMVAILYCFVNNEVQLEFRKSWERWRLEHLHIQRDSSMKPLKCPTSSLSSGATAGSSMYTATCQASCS

Broadly, the solubility is how much of the substance goes into solution per volume. The low end stands for a poorly soluble substance, the high end for a readily soluble substance. By IC50 is commonly meant the concentration at which inhibition is half-maximal. For `CCCCCCCCCCCCCCCC(=O)NCCOCCOCC(=O)N[C@@H](CCC(=O)NCCOCCOCC(=O)N[C@@H](CCC(=O)NCCCC[C@H](NC(=O)[C@H](CO)NC(=O)[C@@H]1CCCN1C(=O)[C@@H]1CCCN1C(=O)[C@@H]1CCCN1C(=O)[C@H](C)NC(=O)CNC(=O)[C@H](CO)NC(=O)[C@H](CO)NC(=O)[C@@H]1CCCN1C(=O)CNC(=O)CNC(=O)[C@H](CCCCN)NC(=O)[C@@H](NC(=O)[C@H](CC(C)C)NC(=O)[C@H](Cc1c[nH]c2ccccc12)NC(=O)[C@H](C)NC(=O)[C@@H](NC(=O)[C@H](Cc1ccccc1)NC(=O)[C@H](CCC(=O)O)NC(=O)[C@H](CCCNC(=N)N)NC(=O)[C@@H](NC(=O)[C@H](C)NC(=O)[C@H](CCC(N)=O)NC(=O)[C@H](CCC(=O)O)NC(=O)[C@H](CCC(=O)O)NC(=O)[C@H](CC(C)C)NC(=O)[C@H](Cc1ccc(O)cc1)NC(=O)[C@H](CO)NC(=O)[C@H](CO)NC(=O)[C@@H](NC(=O)[C@@H](N)CC(=O)O)C(C)C)C(C)C)[C@@H](C)CC)C(C)C)C(N)=O)C(=O)O)C(=O)O` [compound 62] (H-DVSSYLEEQAVREFIAWLVKGGPSSGAPPPSK([γGlu-AEEA-γGlu-AEEA-Palmitoyl])-NH2; N-terminus assumed), in “Solubility in buffer”, the solubility is more than 25 mg/mL. Further, the IC50 on GLP-1R stood at 0.007 µM.
With `CC[C@H](C)[C@H](NC(=O)[C@H](Cc1ccccc1)NC(=O)[C@H](CCC(=O)O)NC(=O)[C@H](CCCNC(=N)N)NC(=O)[C@@H](NC(=O)[C@H](C)NC(=O)[C@H](CCC(N)=O)NC(=O)[C@H](CCC(=O)O)NC(=O)[C@H](CCC(=O)O)NC(=O)[C@H](CC(C)C)NC(=O)[C@H](Cc1ccc(O)cc1)NC(=O)[C@H](CO)NC(=O)[C@H](CO)NC(=O)[C@@H](NC(=O)[C@@H](N)CC(=O)O)C(C)C)C(C)C)C(=O)N[C@@H](C)C(=O)N[C@@H](Cc1c[nH]c2ccccc12)C(=O)N[C@@H](CC(C)C)C(=O)N[C@H](C(=O)N[C@@H](CCCCN)C(=O)NCC(=O)NCC(=O)N1CCC[C@H]1C(=O)N[C@@H](CO)C(=O)N[C@@H](CO)C(=O)NCC(=O)N[C@@H](C)C(=O)N1CCC[C@H]1C(=O)N1CCC[C@H]1C(=O)N1CCC[C@H]1C(=O)N[C@@H](CO)C(=O)N[C@@H](CCCCNC(=O)CCCCCCCCCCCCCCCCC(=O)O)C(N)=O)C(C)C` [compound 63] (H-DVSSYLEEQAVREFIAWLVKGGPSSGAPPPSK(C18 diacid)-NH2; N-terminus assumed), in “Solubility in buffer”, the solubility was more than 25 mg/mL. Moreover, the IC50 at GLP-1R stood at 0.114 µM.
In the data set “Solubility in buffer”, `CC[C@H](C)[C@H](NC(=O)[C@H](Cc1ccccc1)NC(=O)[C@H](CCC(=O)O)NC(=O)[C@H](CCCNC(=N)N)NC(=O)[C@@H](NC(=O)[C@H](C)NC(=O)[C@H](CCC(N)=O)NC(=O)[C@H](CCC(=O)O)NC(=O)[C@H](CCC(=O)O)NC(=O)[C@H](CC(C)C)NC(=O)[C@H](Cc1ccc(O)cc1)NC(=O)[C@H](CO)NC(=O)[C@H](CO)NC(=O)[C@@H](NC(=O)[C@@H](N)CC(=O)O)C(C)C)C(C)C)C(=O)N[C@@H](C)C(=O)N[C@@H](Cc1c[nH]c2ccccc12)C(=O)N[C@@H](CC(C)C)C(=O)N[C@H](C(=O)N[C@@H](CCCCN)C(=O)NCC(=O)NCC(=O)N1CCC[C@H]1C(=O)N[C@@H](CO)C(=O)N[C@@H](CO)C(=O)NCC(=O)N[C@@H](C)C(=O)N1CCC[C@H]1C(=O)N1CCC[C@H]1C(=O)N1CCC[C@H]1C(=O)N[C@@H](CO)C(=O)N[C@@H](CCCCNC(=O)CC[C@H](NC(=O)CC[C@H](NC(=O)CCCCCCCCCCCCCCCCC(=O)O)C(=O)O)C(=O)O)C(N)=O)C(C)C` [compound 64] (H-DVSSYLEEQAVREFIAWLVKGGPSSGAPPPSK([γGlu-γGlu-C18 diacid])-NH2; N-terminus assumed) displayed a solubility of more than 25 mg/mL. Also, the IC50 on GLP-1R is 0.841 µM.
In the data set “Solubility in buffer”, `CC[C@H](C)[C@H](NC(=O)[C@H](Cc1ccccc1)NC(=O)[C@H](CCC(=O)O)NC(=O)[C@H](CCCNC(=N)N)NC(=O)[C@@H](NC(=O)[C@H](C)NC(=O)[C@H](CCC(N)=O)NC(=O)[C@H](CCC(=O)O)NC(=O)[C@H](CCC(=O)O)NC(=O)[C@H](CC(C)C)NC(=O)[C@H](Cc1ccc(O)cc1)NC(=O)[C@H](CO)NC(=O)[C@H](CO)NC(=O)[C@@H](NC(=O)[C@@H](N)CC(=O)O)C(C)C)C(C)C)C(=O)N[C@@H](C)C(=O)N[C@@H](Cc1c[nH]c2ccccc12)C(=O)N[C@@H](CC(C)C)C(=O)N[C@H](C(=O)N[C@@H](CCCCN)C(=O)NCC(=O)NCC(=O)N1CCC[C@H]1C(=O)N[C@@H](CO)C(=O)N[C@@H](CO)C(=O)NCC(=O)N[C@@H](C)C(=O)N1CCC[C@H]1C(=O)N1CCC[C@H]1C(=O)N1CCC[C@H]1C(=O)N[C@@H](CO)C(=O)N[C@@H](CCCCNC(=O)CC[C@H](NC(=O)CC[C@H](NC(=O)CC[C@H](NC(=O)CC[C@H](NC(=O)CCCCCCCCCCCCCCCCC(=O)O)C(=O)O)C(=O)O)C(=O)O)C(=O)O)C(N)=O)C(C)C` [compound 65] (H-DVSSYLEEQAVREFIAWLVKGGPSSGAPPPSK([γGlu-γGlu-γGlu-γGlu-C18 diacid])-NH2; N-terminus assumed) returned a solubility of more than 25 mg/mL. The IC50 on GLP-1R was 1.07 µM.
The molecule `CC[C@H](C)[C@H](NC(=O)[C@H](Cc1ccccc1)NC(=O)[C@H](CCC(=O)O)NC(=O)[C@H](CCCNC(=N)N)NC(=O)[C@@H](NC(=O)[C@H](C)NC(=O)[C@H](CCC(N)=O)NC(=O)[C@H](CCC(=O)O)NC(=O)[C@H](CCC(=O)O)NC(=O)[C@H](CC(C)C)NC(=O)[C@H](Cc1ccc(O)cc1)NC(=O)[C@H](CO)NC(=O)[C@H](CO)NC(=O)[C@@H](NC(=O)[C@@H](N)CC(=O)O)C(C)C)C(C)C)C(=O)N[C@@H](C)C(=O)N[C@@H](Cc1c[nH]c2ccccc12)C(=O)N[C@@H](CC(C)C)C(=O)N[C@H](C(=O)N[C@@H](CCCCN)C(=O)NCC(=O)NCC(=O)N1CCC[C@H]1C(=O)N[C@@H](CO)C(=O)N[C@@H](CO)C(=O)NCC(=O)N[C@@H](C)C(=O)N1CCC[C@H]1C(=O)N1CCC[C@H]1C(=O)N1CCC[C@H]1C(=O)N[C@@H](CO)C(=O)N[C@@H](CCCCNC(=O)CC[C@H](NC(=O)CC[C@H](NC(=O)CC[C@H](NC(=O)CC[C@H](NC(=O)CC[C@H](NC(=O)CC[C@H](NC(=O)CCCCCCCCCCCCCCCCC(=O)O)C(=O)O)C(=O)O)C(=O)O)C(=O)O)C(=O)O)C(=O)O)C(N)=O)C(C)C` [compound 66] (H-DVSSYLEEQAVREFIAWLVKGGPSSGAPPPSK([γGlu-γGlu-γGlu-γGlu-γGlu-γGlu-C18 diacid])-NH2; N-terminus assumed) showed a solubility in the data set “Solubility in buffer” of more than 25 mg/mL. The half-inhibitory concentration (IC50) at GLP-1R turned out to be 1.46 µM.
The corresponding values for `CC[C@H](C)[C@H](NC(=O)[C@H](Cc1ccccc1)NC(=O)[C@H](CCC(=O)O)NC(=O)[C@H](CCCNC(=N)N)NC(=O)[C@@H](NC(=O)[C@H](C)NC(=O)[C@H](CCC(N)=O)NC(=O)[C@H](CCC(=O)O)NC(=O)[C@H](CCC(=O)O)NC(=O)[C@H](CC(C)C)NC(=O)[C@H](Cc1ccc(O)cc1)NC(=O)[C@H](CO)NC(=O)[C@H](CO)NC(=O)[C@@H](NC(=O)[C@@H](N)CC(=O)O)C(C)C)C(C)C)C(=O)N[C@@H](C)C(=O)N[C@@H](Cc1c[nH]c2ccccc12)C(=O)N[C@@H](CC(C)C)C(=O)N[C@H](C(=O)N[C@@H](CCCCN)C(=O)NCC(=O)NCC(=O)N1CCC[C@H]1C(=O)N[C@@H](CO)C(=O)N[C@@H](CO)C(=O)NCC(=O)N[C@@H](C)C(=O)N1CCC[C@H]1C(=O)N1CCC[C@H]1C(=O)N1CCC[C@H]1C(=O)N[C@@H](CO)C(=O)N[C@@H](CCCCNC(=O)COCCOCCNC(=O)COCCOCCNC(=O)CC[C@H](NC(=O)CCCCCCCCCCCCCCCCC(=O)O)C(=O)O)C(N)=O)C(C)C` [compound 67] (H-DVSSYLEEQAVREFIAWLVKGGPSSGAPPPSK([AEEA-AEEA-γGlu-C18 diacid])-NH2) are more than 25 mg/mL and 0.579 µM.
For the molecule `CC[C@H](C)[C@H](NC(=O)[C@H](Cc1ccccc1)NC(=O)[C@H](CCC(=O)O)NC(=O)[C@H](CCCNC(=N)N)NC(=O)[C@@H](NC(=O)[C@H](C)NC(=O)[C@H](CCC(N)=O)NC(=O)[C@H](CCC(=O)O)NC(=O)[C@H](CCC(=O)O)NC(=O)[C@H](CC(C)C)NC(=O)[C@H](Cc1ccc(O)cc1)NC(=O)[C@H](CO)NC(=O)[C@H](CO)NC(=O)[C@@H](NC(=O)[C@@H](N)CC(=O)O)C(C)C)C(C)C)C(=O)N[C@@H](C)C(=O)N[C@@H](Cc1c[nH]c2ccccc12)C(=O)N[C@@H](CC(C)C)C(=O)N[C@H](C(=O)N[C@@H](CCCCN)C(=O)NCC(=O)NCC(=O)N1CCC[C@H]1C(=O)N[C@@H](CO)C(=O)N[C@@H](CO)C(=O)NCC(=O)N[C@@H](C)C(=O)N1CCC[C@H]1C(=O)N1CCC[C@H]1C(=O)N1CCC[C@H]1C(=O)N[C@@H](CO)C(=O)N[C@@H](CCCCNC(=O)COCCOCCNC(=O)CC[C@H](NC(=O)CCCCCCCCCCCCCCCCC(=O)O)C(=O)O)C(N)=O)C(C)C` [compound 68] (H-DVSSYLEEQAVREFIAWLVKGGPSSGAPPPSK([AEEA-γGlu-C18 diacid])-NH2; N-terminus assumed), the solubility in “Solubility in buffer” is more than 25 mg/mL. For the same molecule, at GLP-1R, the IC50 is 0.718 µM.

Values taken from US20240058422A1, “GLUCAGON-LIKE PEPTIDE-1 RECEPTOR ANTAGONISTS” (INDIANA UNIVERSITY RESEARCH AND TECHNOLOGY CORPORATION, priority 2022, published 2024).
